For experiment [1], the target named is T1, Cholecystokinin receptor type A (Rattus norvegicus) (UniProt P30551).
T1 sequence (whole entry): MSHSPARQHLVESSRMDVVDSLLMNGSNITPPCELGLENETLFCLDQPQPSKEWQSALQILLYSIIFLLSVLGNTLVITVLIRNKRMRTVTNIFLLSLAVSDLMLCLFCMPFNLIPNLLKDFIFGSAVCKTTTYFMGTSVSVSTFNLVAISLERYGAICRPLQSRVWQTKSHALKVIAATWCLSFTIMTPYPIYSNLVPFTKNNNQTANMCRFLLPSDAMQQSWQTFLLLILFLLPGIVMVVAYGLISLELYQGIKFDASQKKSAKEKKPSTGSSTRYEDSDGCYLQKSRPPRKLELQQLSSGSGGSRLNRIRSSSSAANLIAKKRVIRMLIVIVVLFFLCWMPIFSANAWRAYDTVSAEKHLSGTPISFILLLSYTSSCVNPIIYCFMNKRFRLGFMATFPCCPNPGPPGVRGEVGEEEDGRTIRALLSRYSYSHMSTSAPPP
The experiment in a line: Displacement of [125I]-CCK8 from CCK1 receptor in rat pancreatic acinar cells 30 uM. A general note: Loss of bound radioactivity is the signal in a displacement assay; it reports binding, not function.

The nature of experiment [2]: Displacement of [125I]-CCK8 from CCK2 receptor in guinea pig cerebral cortex. The class given is tissue-based, Cavia porcellus.
For a further experiment, the species on record is Cavia porcellus. The experiment in a line: Displacement of [125I]-CCK8 from CCK2 receptor in guinea pig cerebral cortex at 10 uM. The class given is tissue-based.

Where only a bound is given, the exact number is not on record here.

Regarding `O=C(CC12CC3CC(CC(C3)C1)C2)Nc1ccccc1C(=O)NC(Cc1ccccc1)C(=O)O` (racemic), the inhibition (in general, the drop in the measured response relative to a control, in per cent) in experiment [1] was 51%. The IC50 (in general, the concentration that inhibits the measured activity by half) in experiment [2] was found to be 15.4 µM.

`O=C(Nc1ccccc1C(=O)NC(Cc1ccccc1)C(=O)O)C1=Cc2ccccc2C1` (racemic) came in with an inhibition in the experiment filed under Cavia porcellus below 20%.

These data come from ChEMBL document CHEMBL1154080, “2D-QSAR and 3D-QSAR/CoMFA analyses of the N-terminal substituted anthranilic acid based CCK(1) receptor antagonists: 'Hic Rhodus, hic saltus'” (Bioorg Med Chem, 2009).
